# From US20030157708A1, “Cell stimulation apparatus and a cell stimulation method” (priority 2001, published 2003)
# Assays:
# Assay type in all cases: cell-based, mice
# [1] = tested on: GABAA receptor β2 subunit; conditions: 7DIV granule cells, FIG. 10C; MK801 25 μM, CNQX 10 μM
# cultured granule cells = test: Release of NRG into conditioned media, read by CREB-phosphorylation of granule cells; conditions: living cultured granule cells
# Method: In D, using cerebellar granule cells, CREB-phosphorylation was checked after the conditioned medium stimulation. Serum-starved cerebellar granule cells were treated (for 5 to 10 minutes) with conditioned media collected from pontine nuclus neuron and granule cell cultures. The conditioned media from pontine nuclei neurons was used for stimulation in a, b and c. In d, e and f, conditioned media were prepared from granule cell culture.
# To detect CREB phosphorylation, 7DIV cultured granule cells were fixed with 4% paraformaldehyde for 10 minutes after conditioned media stimulation for 10 to 15 minutes, and stained with a polyclonal anti-NRG β1 antibody, a polyclonal anti-PCREB antibody (BioLabs). […] Alexa™ dyes (Molecular probe) were used as a secondary antibody.
# The soluble forms released by PMA stimulation (60 minutes) were enriched using a spin column and added into the cultured granule cells. The stimulated granule cells were stained with anti-phospho-CREB antibody after fixation. The conditioned media from the pontine nuclei neurons was used for stimulation (a, b and c) and that from granule cell cultures for stimulation (d, e and f). […] The conditioned media (c and f) should have contained cleaved endogenous and recombinant NRG The subtraction of b from c and e from f indicated CREB-phosphorylation induced by sNRG that was from recombinant mNRG. […]
# [2] = tested on: NMDA receptor NR2C subunit; conditions: 7DIV granule cells, MK801 25 μM
# ErbB4 = ErbB4 tyrosine-phosphorylation activity of conditioned media (immunoprecipitation / anti-phosphotyrosine blot); conditions: PMA stimulation for 60 minutes
# Method: In B, pontine nuclei neurons and granule cells with and without transfection of the transmembrane form of NRG were prepared and stimulated by PMA for 60 minutes and then the conditioned media were collected. Tyrosin-phosphorylation activity of the conditioned media was examined using cerebellar granule cells. The granule cell cultures were stimulated for 5 to 10 minutes with the conditioned media that were collected and concentrated. Lysates from granule cells were resolved by SDS-PAGE, and the blot was probed with an anti-phosphotyrosine antibody (4G10) after immunoprecipitation with anti-ErbB4 antibody. Tyrosine-phosphorylated bands of 180 kD were observed by stimulation (B). The conditioned media were collected from PN(non-transfected pontine neuclei neurons), tPN(transfected pontine neuclei neurons), GC(non-transfected granule cells), and tGC(transfected-granule cells). The result is summarized in C. The experiments were repeated independently three or four times.
# After electrical stimulation (1 mA, 30˜60V outside the cells) for 30 minutes on […] cells which were transfected with recombinant full length mNRG, the conditioned media obtained from the cells were collected and concentrated using centricon 10 and 100 (Millipore) to cut off large (>100 kd) and small (<10 kd) molecular weight proteins. […]
compound,measurement,setting,value
N#Cc1cc2[nH]c(=O)c(=O)[nH]c2cc1[N+](=O)[O-] [CNQX],"β2 transcription at 1.0 and 100 Hz stimulation, block",[1],blocked
[Cl-].[K+] [KC1],release of NRG by stimulation,cultured granule cells,could not be observed
C[C@]12N[C@H](Cc3ccccc31)c1ccccc12 [MK801],"β2 transcription at 1.0 and 100 Hz stimulation, block",[1],blocked
same,"NR2C mRNA increase at 100 Hz (high frequency) stimulation, block","[2]; 30 minutes stimulation, TTX 1 μM, Cd 100 μM, EGTA 1 mM",strongly blocked
same,"NR2C elevated transcription at 1 and 100 Hz, block",[2]; FIG. 10C,strongly blocked
"CCCCCCCCCCCCCC(=O)O[C@@H]1[C@@H](C)[C@@]2(O)[C@@H](C=C(CO)C[C@]3(O)C(=O)C(C)=C[C@@H]23)[C@@H]2C(C)(C)[C@]12OC(C)=O [PMA, phorbol-12-myristate-13-acetate]",Tyrosine-phosphorylated bands of 180 kD with conditioned media from mNRG-transfected neurons,ErbB4,clearly observed
